The source of these data is US12649727B2, “EFGR inhibitor, preparation method therefor and application thereof” (Abbisko Therapeutics Co., Ltd, priority 2020, dated 2026).

Assay type in all cases: cell-based
Test [1] concerns the target Ba/F3 EGFR-V769_D770insASV (Homo sapiens, UniProt P00533, DUP767-769, cells depend on it). As to the kind of experiment: Proliferation experiment of Ba/F3 cell line, EGFR-V769_D770insASV (CellTiter-Glo). The conditions noted are these: cultured for 72 hrs with compound, CTG analysis, read-out: Ba/F3 EGFR-V769_D770insASV IC50. A digest of the protocol:
(§1)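 […] Ba/F3 cells expressing EGFR insertion mutants treated 72 h at 37 °C with 9 concentrations, 3.16-fold dilutions, top 10 μM, 0.1% DMSO, in triplicate. Viability by CellTiter-Glo luminescence with T0 reference plate; IC50 (nM) from non-linear dose-response fit.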
Background: Cellular ATP, detected with luciferase, serves as a proxy for viable cell number.

Test [2] deals with Ba/F3 EGFR-D770-N771ins_SVD (Homo sapiens, UniProt P00533, DUP768-770, cells depend on it). As to the kind of experiment: Proliferation experiment of Ba/F3 cell line, EGFR-D770-N771ins_SVD (CellTiter-Glo). The following applies: cultured for 72 hrs with compound, CTG analysis, read-out: Ba/F3 EGFR-D770-N771ins_SVD IC50. A digest of the protocol:
as §1

Test [3] has as its system A431 (EGFR-WT). As to the kind of experiment: Proliferation experiment, A431 cell line (CellTiter-Glo). The following applies: Homo sapiens, A-431; A431 cells, cultured for 72 hrs with compound, CTG analysis.

Ba/F3 EGFR-V769_D770insASV, sequence (P00533 with tags, fused parts or gaps DUP767-769): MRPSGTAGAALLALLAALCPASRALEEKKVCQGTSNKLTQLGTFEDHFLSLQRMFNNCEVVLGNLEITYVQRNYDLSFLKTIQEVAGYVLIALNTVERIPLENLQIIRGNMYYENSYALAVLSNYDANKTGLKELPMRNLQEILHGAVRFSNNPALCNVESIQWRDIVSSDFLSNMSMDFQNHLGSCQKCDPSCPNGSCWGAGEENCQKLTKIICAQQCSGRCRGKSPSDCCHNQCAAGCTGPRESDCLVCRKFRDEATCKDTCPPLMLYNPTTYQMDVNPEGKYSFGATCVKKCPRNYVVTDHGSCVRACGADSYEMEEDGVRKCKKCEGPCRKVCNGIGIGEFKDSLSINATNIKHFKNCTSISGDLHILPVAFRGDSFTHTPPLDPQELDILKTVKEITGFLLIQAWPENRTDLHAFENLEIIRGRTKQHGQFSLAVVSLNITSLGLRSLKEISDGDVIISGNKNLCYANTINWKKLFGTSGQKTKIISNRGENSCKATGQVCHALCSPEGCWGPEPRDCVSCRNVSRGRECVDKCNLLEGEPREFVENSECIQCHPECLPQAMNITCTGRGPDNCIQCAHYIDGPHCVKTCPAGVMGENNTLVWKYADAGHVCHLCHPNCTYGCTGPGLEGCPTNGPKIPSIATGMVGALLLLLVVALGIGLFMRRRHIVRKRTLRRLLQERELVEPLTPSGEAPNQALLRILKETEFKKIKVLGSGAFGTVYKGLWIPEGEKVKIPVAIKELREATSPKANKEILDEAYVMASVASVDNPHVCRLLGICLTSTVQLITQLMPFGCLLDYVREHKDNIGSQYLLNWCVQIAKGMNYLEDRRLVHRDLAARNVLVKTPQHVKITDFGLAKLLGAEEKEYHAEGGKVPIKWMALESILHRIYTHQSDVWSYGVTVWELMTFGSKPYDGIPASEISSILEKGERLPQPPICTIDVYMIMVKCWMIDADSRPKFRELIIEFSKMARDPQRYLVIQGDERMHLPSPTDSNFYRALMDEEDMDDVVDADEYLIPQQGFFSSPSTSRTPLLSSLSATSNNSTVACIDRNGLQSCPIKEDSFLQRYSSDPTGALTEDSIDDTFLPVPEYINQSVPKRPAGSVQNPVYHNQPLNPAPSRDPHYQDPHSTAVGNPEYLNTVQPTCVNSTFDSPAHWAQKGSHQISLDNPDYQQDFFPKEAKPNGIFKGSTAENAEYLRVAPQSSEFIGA
Ba/F3 EGFR-D770-N771ins_SVD, sequence (P00533 with tags, fused parts or gaps DUP768-770): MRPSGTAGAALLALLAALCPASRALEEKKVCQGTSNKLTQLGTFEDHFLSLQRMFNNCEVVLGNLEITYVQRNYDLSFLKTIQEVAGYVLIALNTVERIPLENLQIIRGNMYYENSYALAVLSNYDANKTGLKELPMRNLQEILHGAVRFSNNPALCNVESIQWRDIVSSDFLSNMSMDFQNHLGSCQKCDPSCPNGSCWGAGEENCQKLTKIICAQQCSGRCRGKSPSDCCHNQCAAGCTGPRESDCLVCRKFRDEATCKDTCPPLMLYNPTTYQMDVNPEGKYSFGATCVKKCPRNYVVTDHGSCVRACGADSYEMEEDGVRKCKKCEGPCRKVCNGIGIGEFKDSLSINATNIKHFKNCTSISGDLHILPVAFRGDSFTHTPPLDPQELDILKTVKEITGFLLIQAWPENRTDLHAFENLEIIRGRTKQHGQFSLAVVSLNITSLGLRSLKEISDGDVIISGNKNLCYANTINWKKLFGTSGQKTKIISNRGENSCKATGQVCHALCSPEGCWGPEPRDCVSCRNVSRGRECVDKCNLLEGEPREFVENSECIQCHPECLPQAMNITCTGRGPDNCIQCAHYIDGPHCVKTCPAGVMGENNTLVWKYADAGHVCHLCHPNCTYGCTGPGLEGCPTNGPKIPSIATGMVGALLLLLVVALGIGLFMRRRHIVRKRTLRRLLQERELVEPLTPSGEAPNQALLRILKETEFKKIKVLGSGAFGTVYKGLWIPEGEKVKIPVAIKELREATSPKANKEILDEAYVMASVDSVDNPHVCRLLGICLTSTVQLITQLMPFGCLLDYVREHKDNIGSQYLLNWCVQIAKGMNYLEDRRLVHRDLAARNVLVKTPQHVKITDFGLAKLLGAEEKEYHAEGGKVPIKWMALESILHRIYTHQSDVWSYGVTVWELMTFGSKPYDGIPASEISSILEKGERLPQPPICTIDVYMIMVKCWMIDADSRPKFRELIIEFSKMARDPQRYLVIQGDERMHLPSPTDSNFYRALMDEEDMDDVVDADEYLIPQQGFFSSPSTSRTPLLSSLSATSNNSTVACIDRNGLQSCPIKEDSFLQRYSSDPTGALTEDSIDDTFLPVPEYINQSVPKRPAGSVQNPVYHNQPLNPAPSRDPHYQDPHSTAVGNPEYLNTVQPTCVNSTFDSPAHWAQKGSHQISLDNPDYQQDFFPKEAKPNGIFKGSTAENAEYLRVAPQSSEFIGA

`C=CC(=O)Nc1cc2c(Nc3ccnc(-c4ccccc4F)c3)ncnc2cc1O[C@@H]1CCN(C2COC2)C1` [Example 114, (R)—N-(4-((2-(2-fluorophenyl)pyridin-4-yl)amino)-7-((1-(oxetan-3-yl)pyrrolidin-3-yl)oxy)quinazolin-6-yl)acrylamide]: the figures for the GI50 in test [1] and in test [2] were 3.3 nM and 1.1 nM, respectively. In addition, the 50% inhibitory concentration (IC50) (commonly the concentration at which inhibition is half-maximal) in test [3] worked out at 26.3 nM.
The like results for `C=CC(=O)Nc1cc2c(Nc3ccnc(-c4ccccc4F)c3)ncnc2cc1O[C@@H]1CCN(C2CCN(C)CC2)C1` [Example 116, (R)-N-(4-((2-(2-fluorophenyl)pyridin-4-yl)amino)-7-((1-(1-methylpiperidin-4-yl)pyrrolidin-3-yl)oxy)quinazolin-6-yl)acrylamide] were, in that order, 3.4 nM, 3 nM and 142 nM.
For `C=C(F)C(=O)Nc1cc2c(Nc3ccnc(-c4ccccc4F)c3)ncnc2cc1O[C@@H]1CCN(C2COC2)C1` [Example 118, (R)-2-fluoro-N-(4-((2-(2-fluorophenyl)pyridin-4-yl)amino)-7-((1-(oxetan-3-yl)pyrrolidin-3-yl)oxy)quinazolin-6-yl)acrylamide], the GI50 turned out to be 9.8 nM in test [1] and 2.6 nM in test [2]. The half-maximal inhibitory concentration (IC50) in test [3] amounted to 19.1 nM.
For the compound `C=C(F)C(=O)Nc1cc2c(Nc3ccnc(-c4ccccc4F)c3)ncnc2cc1O[C@@H]1CCN(C2CCOCC2)C1` [Example 121, (R)-2-fluoro-N-(4-((2-(2-fluorophenyl)pyridin-4-yl)amino)-7-((1-(tetrahydro-2H-pyran-4-yl)pyrrolidin-3-yl)oxy)quinazolin-6-yl)acrylamide], the GI50 in test [1] is 16.5 nM; in test [2], 6.5 nM. Further, the half-maximal inhibitory concentration (IC50) in test [3] was determined as 44.1 nM.
On the same counts, the results for `C=CC(=O)Nc1cc2c(Nc3ccnc(-c4ccccc4F)c3)ncnc2cc1OCCCN1CCN(CCO)CC1` [Example 122, N-(4-((2-(2-fluorophenyl)pyridin-4-yl)amino)-7-(3-(4-(2-hydroxyethyl)piperazin-1-yl)propoxy)quinazolin-6-yl)acrylamide] are 6.8 nM, 3.8 nM and 63.9 nM.
In the case of `C=CC(=O)Nc1cc2c(Nc3ccnc(-c4ccccc4F)c3)ncnc2cc1OCCCN1CCN(CCOC)CC1` [Example 123, N-(4-((2-(2-fluorophenyl)pyridin-4-yl)amino)-7-(3-(4-(2-methoxyethyl)piperazin-1-yl)propoxy)quinazolin-6-yl)acrylamide], the figures for the GI50 in test [1] and in test [2] were 2.4 nM and 1.6 nM, respectively. Also, in test [3], the IC50 was determined as 20.5 nM.
The like results for `C=CC(=O)Nc1cc2c(Nc3ccnc(-c4ccccc4F)c3)ncnc2cc1O[C@@H]1CCN(CC)C1` [Example 124, (R)-N-(7-((1-ethylpyrrolidin-3-yl)oxy)-4-((2-(2-fluorophenyl)pyridin-4-yl)amino)quinazolin-6-yl)acrylamide] were, in that order, 9.1 nM, 2.9 nM and 104 nM.
On the same counts, the results for `C=CC(=O)Nc1cc2c(Nc3ccnc(-c4ccccc4F)c3)ncnc2cc1O[C@@H]1CCN(C(C)C)C1` [Example 125, (R)-N-(4-((2-(2-fluorophenyl)pyridin-4-yl)amino)-7-((1-isopropylpyrrolidin-3-yl)oxy)quinazolin-6-yl)acrylamide] are 7.8 nM, 2.4 nM and 86.5 nM.
